Reference: article PMC9458111, “New 1,2,3-Triazole-Coumarin-Glycoside Hybrids and Their 1,2,4-Triazolyl Thioglycoside Analogs Targeting Mitochondria Apoptotic Pathway: Synthesis, Anticancer Activity and Docking Simulation” (Molecules, 2022)

Tests used:
CDK-2/cyclin A2 = CDK-2/cyclin A2 (Homo sapiens, UniProt P24941); experiment: CDK-2/cyclin A2 inhibitory assay (ELISA); type: biochemical; conditions: mean of three values; read-out: IC50 (Mean ± SEM), CDK-2/Cyclin A2
Experimental: Assay of CDK-2/cyclin A2 was achieved through ELISA using an affinity tag labeled capture antibody. […] After the incubation period, the unrestrained substance has been discarded, and the wells have been washed. The added TMB (3,3′,5,5′-tetramethylbenzidine) substrate was prompted by Horseradish peroxidase (HRP), and blue coloration appeared. This reaction was stopped through the addition of stop solution to complete changing in colour from blue to yellow. The created signals were equivalent to the quantity of bound analyte, and the Robonik P2000 ELISA reader was used to record the intensity at a certain wavelength (450 nm).

[1] = test system: human osteosarcoma (HOS cell lines); experiment: MTT cytotoxicity assay, HOS; type: cell-based; conditions: 48 h
Experimental: (§1) The synthesized compounds were studied for their cytotoxic activity against several human cancer cell lines, namely human osteosarcoma (HOS cell lines), human breast adenocarcinoma (MDA-MB-231 cell lines), human breast cancer (MCF-7 cell lines), human colorectal adenocarcinoma (Caco-2 cell lines) and human colon cell line (HCT-116 cell lines) using MTT assay at 100 µM, and the results were outlined as shown in Table 1.
(§2) Human osteosarcoma (HOS cell line), human breast adenocarcinoma (MDA-MB-231cell lines), human breast cancer (MCF-7 cell lines), human colorectal adenocarcinoma (Caco2 cell lines), human colon cell line (HCT-116 cell lines), normal human cell lines (BJ-1), and “a telomerase immortalized normal foreskin fibroblast cell line” were obtained from Karolinska Center, Department of Oncology and Pathology, Karolinska Institute and Hospital, Stockholm, Sweden.
(§3) Following culturing for 10 days, the cells were seeded at concentration of 10 × 10^3 cells per well in case of MCF-7 & MDA, 20 × 10^3 cells/well in a fresh complete growth medium in case of HCT-116, Caco2, & HOS and 40 × 10^3 cells/well in case of BJ-1 at 37 °C for 24 h in a water jacketed carbon dioxide incubator. After 48 h’ incubation, the medium was aspirated, and then 40 μl MTT salt (2.5 mg/mL) were added for a further 4 h; 200 μl 10% sodium dodecyl sulphate (SDS) in deionized water were added to each well and incubated overnight at 37 °C. The absorbance was measured at 595 nm with reference 690 nm. Doxorubicin was used as positive control, and 0.5% DMSO was used as negative control. IC50 values were calculated, using a probit analysis, and by utilizing the SPSS computer program (SPSS for Windows, statistical analysis software package/version 9/1989 SPSS Inc., Chicago, IL, USA).

[2] = test system: human breast cancer (MCF-7 cell lines); experiment: MTT cytotoxicity assay, MCF-7; type: cell-based
Experimental: as §1, §2, §3

[3] = test system: human colorectal adenocarcinoma (Caco-2 cell lines); experiment: MTT cytotoxicity assay, Caco-2; type: cell-based; conditions: Caco-2, 48 h
Experimental: as §1, §2, §3

[4] = test system: Bax protein in MCF-7 cells; experiment: Bax protein level in MCF-7 cells (ELISA); type: cell-based, human; conditions: MCF-7, 19.6 µM (IC50), 24 h
Experimental: (§4) Referring to the cytotoxicity results, the 1,2,4-triazole-thioglycoside derivative 10 has a mitochondria-apoptotic effect on breast cancer cells through reduction of MTT by a mitochondrial enzyme. […] Along with that, such derivative elevated the release of cytochrome c into the cytosol in the treated MCF-7, in comparison with untreated one from 0.176 to 0.766 ng/ml due to disturbing mitochondrial outer membrane permeability (MOMP). In addition, the target 10 achieved better results than those afforded by from the standard 5-fluorouracil. Moreover, the level of caspase-7 was elevated in treated cells with the target 10 rather than that with 5-fluorouracil or the untreated cells as shown in Figure 4.
Bax protein levels picogram per ml (Pg/mL) were evaluated according to previously reported procedure. Monoclonal antibody, specific to Bax captured on the plate, was added. After incubation, Streptavidin conjugated to Horseradish peroxidase was added. The reaction was then terminated by adding acid and optical density of the color produced measured at 450 nm.
(§5) Figure 4 Levels of Bax, Bcl-2, Bax/Bcl-2 ratio, cytochrome c and caspase-7 protein in MCF-7 cells after treatment with compound 10 and the standard drug for 24 h compared with the untreated one, 5-flu: 5-fluorouracil as a reference drug.

[5] = test system: Bcl-2 protein in MCF-7 cells; experiment: Bcl-2 protein level in MCF-7 cells (ELISA); type: cell-based, human; conditions: MCF-7, 19.6 µM (IC50), 24 h
Experimental: as §4
Bcl-2 (ng/mL) in the samples and standards were estimated as reported. A biotin-conjugated antibody was added followed by streptavidin-HRP. The reaction is then terminated by adding acid and absorbance was measured at 450 nm.
as §5

[6] = test system: human colon cell line (HCT-116 cell lines); experiment: MTT cytotoxicity assay, HCT-116; type: cell-based; conditions: HCT-116, 48 h
Experimental: as §1, §2, §3

[7] = test system: cytochrome c in MCF-7 cells; experiment: Cytochrome c release in MCF-7 cells (ELISA); type: cell-based, human; conditions: MCF-7, 19.6 µM (IC50), 24 h; untreated 0.176
Experimental: as §4
Cytochrome c specific antibodies have been precoated onto 96-well plates. Cytochrome c were analyzed by enzyme-linked immunosorbent assays (ELISAs) using commercial kits (ab119521; Abcam, Cambridge, MA, USA). The optimal dilutions were determined, and ELISAs were performed according to the manufacturer’s instructions.
as §5

MCF-7 cells = experiment: Cell cycle analysis, PI flow cytometry; type: cell-based, human
Experimental: Cell cycle analysis and apoptosis detection were carried out by flow cytometry. MCF-7 cells were seeded at 1–5 × 10^4 and incubated at 37 °C, 5% CO2 overnight. After treatment with the tested compound 10, for 24 h, cell pellets were collected and centrifuged (300× g, 5 min). For cell cycle analysis, cell pellets were fixed with 70% ethanol on ice for 15 min and collected again [54]. The collected pellets were incubated with propidium iodide (PI) staining solution at room temperature for 1 h. Apoptosis detection was performed by Annexin V-FITC apoptosis detection kit (BioVision, Inc, Milpitas, CA, USA) following the manufacturer’s protocol. The samples were analyzed using FACS Calibur flow cytometer (BD Biosciences, San Jose, CA).
Figure 5 Cell cycle analysis and the effect of the target 10 on the percentage of V-FITC-positive annexin staining in MCF-7 cells in comparison with the control. TEXT PRINTED IN THE PICTURE: (C) cpd10: MCF7: 6.07%; MCF7: 18.11%; MCF7: 25.44% | (D) cpd10: MCF7: %DIP G1 41.96%; MCF7: %DIP G2/M 6.61%; MCF7: %DIP S 51.43%

`CCn1c(COc2ccc3c(-c4ccccc4)cc(=O)oc3c2)nnc1SC1OCC(O)C(O)C1O` [Compound 10, 4-Phenyl-7-((4-ethyl-5-(1-(β-D-xylopyranosyl)thio)-4H-1,2,4-triazol-3-yl)meth-oxy)-2H-chromen-2-one] gave an IC50 (CDK-2/cyclin A2) of 0.15 µM, a cytotoxicity at 100 µM [1] of 5.3 ± 0.2% and a cytotoxicity at 100 µM ([2]; MCF7, 48 h) of 66.3 ± 1%. For the same compound, the IC50 ([2]; MCF7, MTT, 0.78–100 µM, ± SD) was 19.6 ± 0.7 µM, the cytotoxicity at 100 µM [3] was 0.7 ± 0.003% and the “Upregulation of pro-apoptotic Bax protein versus untreated cells” value [4] was 4 folds. The “Downregulation of anti-apoptotic Bcl-2 protein versus untreated cells” value [5] was 5.3 folds, the melting point was 178 to 179 °C and the cytotoxicity at 100 µM [6] was 27.2 ± 0.7%. The “Cytochrome c released into the cytosol” value [7] was 0.766 ng/mL, the “Increase in the cell percentage at the S phase versus untreated” value (MCF-7 cells; MCF-7, 19.6 µM (IC50), 24 h) was 1.7 fold and the “Cell percentage at the S phase” value (MCF-7 cells; MCF-7, 19.6 µM (IC50), 24 h, untreated 29.63%) was 51.43%. The “%DIP G1” value (MCF-7 cells; MCF-7, Figure 5D) was 41.96% and the “%DIP G2/M” value (MCF-7 cells; MCF-7, Figure 5D) was 6.61%.
